Measurements: US6414154B1, “Tetraisoquinoline derivatives as modulators of dopamine D3 receptors” (SmithKline Beecham p.l.c., priority 1998, dated 2002)
Structures can show the parent of a compound that is named as a salt. Values belong to the compound of their own block, whether it stands above or below them.

Target: T1, human D3 dopamine receptors (Homo sapiens, UniProt P35462)
T1 construct: expressed in transfected cells; host or cells: CHO cells (crude cell membranes)
Experiment: displacement of [125I] iodosulpride binding to cloned human D3 dopamine receptors expressed in CHO cells
Details: 0.1 nM [125I] iodosulpride, CHO cell membranes, 30 min at 37° C.; read-out: pKi at the D3 receptor (converted)
Method: The inhibition constants (Ki) of test compounds for displacement of [^125I] iodosulpride binding to human D3 dopamine receptors expressed in CHO cells were determined as follows. […] Cultures were grown as monolayers or in suspension in standard cell culture media. Cells were recovered by scraping (from monolayers) or by centrifugation (from suspension cultures), and were washed two or three times by suspension in phosphate buffered saline followed by collection by centrifugation. Cell pellets were stored frozen at −40° C. Crude cell membranes were prepared by homogenisation followed by high-speed centrifugation, and characterisation of cloned receptors achieved by radioligand binding.
Cell pellets were gently thawed at room temperature, and resuspended in about 20 volumes of ice-cold 50 mM Tris salts (pH 7.4@37° C.), 20 mM EDTA, 0.2 M sucrose. The suspension was homogenised using an Ultra-Turrax at full speed for 15 sec. The homogenate was centrifuged at 18,000 r.p.m for 20 min at 4° C. in a Sorvall RC5C centrifuge. The membrane pellet was resuspended in ice-cold 50 mM Tris salts (pH 7.4@37° C.), using an Ultra-Turrax, and recentrifuged at 18,000 r.p.m for 15 min at 4° C. in a Sorvall RC5C. The membranes were washed two more times with ice-cold 50 mM Tris salts (pH 7.4@37° C.). The final pellet was resuspended in 50 mM Tris salts (pH 7.4@37° C.), and the protein content determined using bovine serum albumin as a standard (Bradford, M. M. (1976) Anal. Biochem. 72, 248-254).
Crude cell membranes were incubated with 0.1 nM [^125I] iodosulpride (˜2000 Ci/mmol; Amersham, U. K.), and the test compound in a buffer containing 50 mM Tris salts (pH 7.4@37° C.), 120 mM NaCl, 5 mM KCl, 2 mM CaCl2, 1 mM MgCl2, 0.1% (w/v) bovine serum albumin, in a total volume of 1 ml for 30 min at 37° C. Following incubation, samples were filtered using a Brandel Cell Harvester, and washed three times with ice-cold 50 mM Tris salts (pH 7.4@37° C.), 120 mM NaCl, 5 mM KCl, 2 mM CaCl2, 1 mM MgCl2. The radioactivity on the filters was measured using a Cobra gamma counter (Canberra Packard). Non-specific binding was defined as the radioligand binding remaining after incubation in the presence of 100 μM iodosulpride. For competition curves, 14 concentrations (half-log dilutions) of competing cold drug were used. Competition curves were analysed simultaneously whenever possible using non-linear least-squares fitting procedures, capable of fitting one, two or three site models.

T1 sequence (P35462 whole entry): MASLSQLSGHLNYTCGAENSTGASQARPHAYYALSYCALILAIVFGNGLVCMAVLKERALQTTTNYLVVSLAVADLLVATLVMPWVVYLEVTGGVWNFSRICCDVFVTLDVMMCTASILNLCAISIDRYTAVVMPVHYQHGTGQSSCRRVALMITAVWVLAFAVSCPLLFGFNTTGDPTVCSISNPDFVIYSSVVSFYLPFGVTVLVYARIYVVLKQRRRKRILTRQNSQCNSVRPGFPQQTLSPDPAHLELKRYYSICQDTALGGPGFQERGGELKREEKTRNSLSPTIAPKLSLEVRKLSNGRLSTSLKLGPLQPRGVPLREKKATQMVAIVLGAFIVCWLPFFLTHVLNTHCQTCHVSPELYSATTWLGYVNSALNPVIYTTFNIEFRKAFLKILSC

SMILES: N#Cc1ccc2c(c1)CCN(CC[C@H]1CC[C@H](NC(=O)Cc3cc(F)cc(F)c3)CC1)C2 [Example 28, trans-6-Cyano-2-(2-(1-(4-(3,5-difluoro)phenylacetamido)-cyclohexyl)ethyl)-1,2,3,4-tetrahydroisoquinoline]
Ki: 3.16 to 12.6 nM

SMILES: N#Cc1ccc2c(c1)CCN(CC[C@H]1CC[C@H](NC(=O)Cc3cc4ccccc4s3)CC1)C2 [Example 29, trans-6-Cyano-2-(2-(1-(4-(2-benzothiophenyl)acetamido)-cyclohexyl)ethyl)-1,2,3,4-tetrahydroisoquinoline]
Ki: 3.16 to 12.6 nM

SMILES: N#Cc1ccc2c(c1)CCN(CC[C@H]1CC[C@H](NC(=O)Cc3ccco3)CC1)C2 [Example 30, trans-6-Cyano-2-(2-(1-(4-(2-furanyl)acetamido)-cyclohexyl)ethyl)-1,2,3,4-tetrahydroisoquinoline]
Ki: 3.16 to 12.6 nM

Now from value to compound:

Ki: 3.16 to 12.6 nM
SMILES: N#Cc1ccc2c(c1)CCN(CC[C@H]1CC[C@H](NC(=O)Cc3cc4ccccc4o3)CC1)C2 [Example 31, trans-6-Cyano-2-(2-(1-(4-(2-benzofuranyl)acetamido)-cyclohexyl)ethyl)-1,2,3,4-tetrahydroisoquinoline]

Ki: 3.16 to 12.6 nM
SMILES: N#Cc1ccc2c(c1)CCN(CC[C@H]1CC[C@H](NC(=O)Cc3ccc(F)cc3)CC1)C2 [Example 32, trans-6-Cyano-2-(2-(1-(4-(4-fluorophenyl)acetamido)cyclohexyl)ethyl)-1,2,3,4-tetrahydroisoquinoline, Hydrochloride]
